Test results published in patent publication US20090012085A1, “DOSAGE FORMS AND METHODS OF TREATMENT USING A TYROSINE KINASE INHIBITOR” (priority 2005, published 2009).
Read-outs that look alike come from different tables or passages of the source.

Experiment: Phase I dose-escalating study, plasma pharmacokinetics in patients with solid tumor
Format: in vivo, human
Settings: for Tmax: read-out: tmax, mean (% CV); for concentration at 4 h: nominal time 4 h; for concentration at 12 h: nominal time 12 h; for accumulation of the drug with continuous dosing: plasma exposures on Day 28 of dosing, compared to 4/1 schedule
Procedure: Cmax values, or maximum total plasma concentrations, of a compound of formula 1 can be measured according to techniques well known to those skilled in the art. For example, after a compound of formula 1 has been administered to a mammal, blood samples can be taken at fixed time points over a period of time (e.g. 24 hours) and the serum or plasma concentration of compound of formula 1 can be measured using standard analytical techniques known in the art. In vivo determinations Cmax can then be made by plotting the serum or plasma concentration of compound of formula 1 along the ordinate (y-axis) against time along the abscissa (x-axis).
The maleate salt of compound 1 was administered to human patients with solid tumor malignancies not amenable to conventional therapies in a Phase I dose-escalating multicenter study. The types of tumor malignancies included colorectal carcinoma, renal cell carcinoma, esophageal carcinoma, thymus carcinoma, mastocytosis, lung cancer and multiple endocrine neoplasia type II. Patients were treated in cohorts of 6 with escalating QD (once per day) doses of the maleate salt of compound 1 under fasting conditions. Each study cycle of 5 weeks consisted of 4 weeks of treatment followed by 1 week of rest (4/1 schedule), or continuous dosing without any rest period.
Full pharmacokinetic profiles were collected on Cycle 1 Day 1 (C1D1), Cycle 1 Day 28 (C1D28), and Cycle 2 Day 28 (C2D28). Preliminary pharmacokinetic parameters for the first 44 patients, i.e. the first 7 dosing groups, were estimated using nominal collection times and quality-controlled, non-quality assured bioanalytical data. The dosage amounts in Table 1A and Table 1B are free base equivalent amounts.

- half-life (human, plasma, 200 mg, 200 mg QD (4/1), C1D1 (n = 6), plasma, read-out: t½, mean (% CV) (converted)): 1130 min
- AUC(0-t) (human, plasma, 200 mg, 200 mg QD (4/1), C1D28 (n = 5), plasma, read-out: AUC(0-24), mean (% CV)): 8210 ng·h/mL
- concentration at 24 h (human, plasma, 200 mg, 200 mg QD (4/1), C1D28 (n = 5), plasma, read-out: C(trough, 24 h), mean (% CV)): 259 ng/mL
- Cmax (human, plasma, 200 mg, 200 mg QD (4/1), C1D28 (n = 5), plasma, read-out: Cmax, mean (% CV)): 561 ng/mL
- Tmax (human, plasma, 200 mg, 200 mg QD (4/1), C1D28 (n = 5), plasma): 6.6 h
- half-life (human, plasma, 200 mg, 200 mg QD (4/1), C1D28 (n = 5), plasma, read-out: t½, mean (% CV) (converted)): 1610 min
- AUC(0-t) (human, plasma, 200 mg, 200 mg QD (4/1), C2D28 (n = 5), plasma, read-out: AUC(0-24), mean (% CV)): 6270 ng·h/mL
- concentration at 24 h (human, plasma, 200 mg, 200 mg QD (4/1), C2D28 (n = 5), plasma, read-out: C(trough, 24 h), mean (% CV)): 211 ng/mL
- Cmax (human, plasma, 200 mg, 200 mg QD (4/1), C2D28 (n = 5), plasma, read-out: Cmax, mean (% CV)): 375 ng/mL
- Tmax (human, plasma, 200 mg, 200 mg QD (4/1), C2D28 (n = 5), plasma): 5.6 h
- half-life (human, plasma, 200 mg, 200 mg QD (4/1), C2D28 (n = 5), plasma, read-out: t½, mean (% CV) (converted)): 918 min
- concentration at 3 h (human, plasma, 250 mg QD, 250 mg QD 4/1 (n = 6), nominal time 3 h, read-out: Mean plasma concentration following the last dose on cycle 1 day 28): 250 ng/mL
- concentration at 4 h (human, plasma, 250 mg QD, 250 mg QD 4/1 (n = 6), read-out: Mean plasma concentration following the last dose on cycle 1 day 28): 200 ng/mL
- concentration at 6 h (human, plasma, 250 mg QD, 250 mg QD 4/1 (n = 6), nominal time 6 h, read-out: Mean plasma concentration following the last dose on cycle 1 day 28): 157 ng/mL
- concentration at 8 h (human, plasma, 250 mg QD, 250 mg QD 4/1 (n = 6), nominal time 8 h, read-out: Mean plasma concentration following the last dose on cycle 1 day 28): 161 ng/mL
- concentration at 10 h (human, plasma, 250 mg QD, 250 mg QD 4/1 (n = 6), nominal time 10 h, read-out: Mean plasma concentration following the last dose on cycle 1 day 28): 141 ng/mL
- concentration at 0 h (human, plasma, 250 mg, 250 mg QD 4/1 (n = 6), nominal time 0 h, read-out: Mean plasma concentration following the last dose on cycle 1 day 28): 64.5 ng/mL
- concentration at 1 h (human, plasma, 250 mg, 250 mg QD 4/1 (n = 6), nominal time 1 h, read-out: Mean plasma concentration following the last dose on cycle 1 day 28): 107 ng/mL
- concentration at 2 h (human, plasma, 250 mg, 250 mg QD 4/1 (n = 6), nominal time 2 h, read-out: Mean plasma concentration following the last dose on cycle 1 day 28): 177 ng/mL
- concentration at 20 h (human, plasma, 250 mg, 250 mg QD 4/1 (n = 6), nominal time 20 h, read-out: Mean plasma concentration following the last dose on cycle 1 day 28): 53.6 ng/mL
- concentration at 24 h (human, plasma, 250 mg, 250 mg QD 4/1 (n = 6), nominal time 24 h, read-out: Mean plasma concentration following the last dose on cycle 1 day 28): 63 ng/mL
- AUC(0-t) (human, plasma, 250 mg, 250 mg QD (4/1), C1D1 (n = 6), plasma, read-out: AUC(0-24), mean (% CV)): 7580 ng·h/mL
- concentration at 24 h (human, plasma, 250 mg, 250 mg QD (4/1), C1D1 (n = 6), plasma, read-out: C(trough, 24 h), mean (% CV)): 143 ng/mL
- Cmax (human, plasma, 250 mg, 250 mg QD (4/1), C1D1 (n = 6), plasma, read-out: Cmax, mean (% CV)): 848 ng/mL
- Tmax (human, plasma, 250 mg, 250 mg QD (4/1), C1D1 (n = 6), plasma): 3.7 h
- half-life (human, plasma, 250 mg, 250 mg QD (4/1), C1D1 (n = 6), plasma, read-out: t½, mean (% CV) (converted)): 690 min
- AUC(0-t) (human, plasma, 250 mg, 250 mg QD (4/1), C1D28 (n = 4), plasma, read-out: AUC(0-24), mean (% CV)): 9810 ng·h/mL
- concentration at 24 h (human, plasma, 250 mg, 250 mg QD (4/1), C1D28 (n = 4), plasma, read-out: C(trough, 24 h), mean (% CV)): 246 ng/mL
- Cmax (human, plasma, 250 mg, 250 mg QD (4/1), C1D28 (n = 4), plasma, read-out: Cmax, mean (% CV)): 734 ng/mL
- Tmax (human, plasma, 250 mg, 250 mg QD (4/1), C1D28 (n = 4), plasma): 4.5 h
- half-life (human, plasma, 250 mg, 250 mg QD (4/1), C1D28 (n = 4), plasma, read-out: t½, mean (% CV) (converted)): 1340 min
- concentration at 24 h (human, plasma, 250 mg, 250 mg QD (4/1), C2D28 (n = 4), plasma, read-out: C(trough, 24 h), mean (% CV)): 279 ng/mL
- Cmax (human, plasma, 250 mg, 250 mg QD (4/1), C2D28 (n = 4), plasma, read-out: Cmax, mean (% CV)): 748 ng/mL
- Tmax (human, plasma, 250 mg, 250 mg QD (4/1), C2D28 (n = 4), plasma): 5.5 h
- half-life (human, plasma, 250 mg, 250 mg QD (4/1), C2D28 (n = 4), plasma, read-out: t½, mean (% CV) (converted)): 792 min
- half-life (human, plasma, 4/1 schedule, blood samples for 144 hours after the last dose on Day 28, across the dose groups, read-out: longer t1/2, mean estimates): 792 to 1610 min
- half-life (human, plasma, C1D1, across dose groups, read-out: mean terminal plasma half-life (t1/2) over 24 hours after dosing): 648 to 1130 min
- concentration at 12 h (human, plasma, oral, 25 mg QD, 25 mg QD 4/1 (n = 6), read-out: Mean plasma concentration following the last dose on cycle 1 day 28): 30.1 ng/mL
- concentration at 4 h (human, plasma, oral, 25 mg, 25 mg QD 4/1 (n = 6), read-out: Mean plasma concentration following the last dose on cycle 1 day 28): 58.3 ng/mL
- AUC(0-t) (human, plasma, oral, 25 mg, 25 mg QD (4/1), C2D28 (n = 5), plasma, read-out: AUC(0-24), mean (% CV)): 794 ng·h/mL
- concentration at 24 h (human, plasma, oral, 25 mg, 25 mg QD (4/1), C2D28 (n = 5), plasma, read-out: C(trough, 24 h), mean (% CV)): 21.4 ng/mL
- AUC(0-t) (human, plasma, oral, 25 mg, one patient excluded from the mean, 25 mg QD 4/1, C2D28, read-out: AUC(0-24)): 7000 ng·h/mL
- Cmax (human, plasma, oral, 25 mg, one patient excluded from the mean, 25 mg QD 4/1, C2D28, read-out: Cmax): 394 ng/mL
- concentration at 12 h (human, plasma, oral, 50 mg QD, 50 mg QD 4/1 (n = 5), read-out: Mean plasma concentration following the last dose on cycle 1 day 28): 50.4 ng/mL
- concentration at 4 h (human, plasma, oral, 50 mg, 50 mg QD 4/1 (n = 5), read-out: Mean plasma concentration following the last dose on cycle 1 day 28): 81.1 ng/mL
- concentration at 12 h (human, plasma, oral, 100 mg QD, 100 mg QD 4/1 (n = 6), read-out: Mean plasma concentration following the last dose on cycle 1 day 28): 204 ng/mL
- concentration at 12 h (human, plasma, oral, 100 mg, 100 mg QD Continuous (n = 4), read-out: Mean plasma concentration following the last dose on cycle 1 day 28): 377 ng/mL
- concentration at 12 h (human, plasma, oral, 150 mg QD, 150 mg QD 4/1 (n = 5), read-out: Mean plasma concentration following the last dose on cycle 1 day 28): 91.3 ng/mL
- concentration at 4 h (human, plasma, oral, 150 mg, 150 mg QD 4/1 (n = 5), read-out: Mean plasma concentration following the last dose on cycle 1 day 28): 231 ng/mL
- concentration at 12 h (human, plasma, oral, 150 mg, 150 mg QD Continuous (n = 6), read-out: Mean plasma concentration following the last dose on cycle 1 day 28): 465 ng/mL
- concentration at 12 h (human, plasma, oral, 200 mg, 200 mg QD 4/1 (n = 5), read-out: Mean plasma concentration following the last dose on cycle 1 day 28): 355 ng/mL
- concentration at 12 h (human, plasma, oral, 250 mg, 250 mg QD 4/1 (n = 6), read-out: Mean plasma concentration following the last dose on cycle 1 day 28): 130 ng/mL
- AUC(0-t) (human, plasma, oral, 250 mg, 250 mg QD (4/1), C2D28 (n = 4), plasma, read-out: AUC(0-24), mean (% CV)): 9770 ng·h/mL
- half-life (human, plasma, oral, patients with solid tumors, read-out: effective t1/2 of elimination from plasma): 660 to 1140 min
- concentration at 1 week (human, extrapolating beyond the measured plasma concentrations at 144 hours, rest period after the last dose of Cycle 1, read-out: concentration prior to the start of dosing in the following cycle): < 5 ng/mL
- higher exposures on C2D28 compared with C1D28 (one patient excluded from the mean, 25 mg QD 4/1): approximately 5 fold
- accumulation of the drug with continuous dosing: no unexpected accumulation
- accumulation of the drug with continuous dosing (listed as compound of formula 1): no unexpected drug accumulation
SMILES: Cc1[nH]c(/C=C2\C(=O)Nc3ccc(F)cc32)c(C)c1C(=O)NC[C@H](O)CN1CCOCC1 [compound 1, 5-[(Z)-(5-fluoro-2-oxo-1,2-dihydro-3H-indol-3-ylidene)methyl]-N-[(2S)-2-hydroxy-3-morpholin-4-ylpropyl]-2,4-dimethyl-1H-pyrrole-3-carboxamide]
